What was measured:
IN–GCN2 interaction = biological target: T1, IN–GCN2 interaction (UniProt P04585+Q9P2K8); experiment: IN–GCN2 interaction assay (AlphaLISA); assay type: binding, HIV-1 IN / human GCN2; conditions: pilot screen, single dose of 100 µM; read-out: inhibition of the IN–GCN2 interaction signal
T1 construct: expressed as a truncated version (192-1024) in fusion after a glutathione S-transferase tag; Recombinant full-length IN was expressed in E. coli BL21 pLys; purchased SignalChem (GCN2); IN made in house in E. coli BL21 pLys E12-11G; host or cells: E. coli BL21 pLys (IN)
Source text: We developed an in vitro plate-based assay to monitor the interaction between GCN2 and IN using the AlphaLISA technology (Figure 1). Taking advantage of the tags present on each recombinant protein (6xHis for IN prepared “in-house”, and GST for GCN2 commercially available), we used specific beads that fluoresce only when they are in close proximity (<200 nm). The signal obtained (light count) is directly proportional to the binding of IN to GCN2 (homogenous solution assay at steady state).
IN–GCN2 interaction assay. Protein–protein interactions were monitored using the AlphaLISA technology (Perkin Elmer) taking advantage of the GST and 6xHis tags of GCN2 and IN, respectively. Accordingly, AlphaScreen GSH Donor beads and AlphaLISA Nickel Acceptor beads were used (Perkin Elmer). Reactions were carried out at room temperature by incubating GCN2 with drugs or DMSO for 5 min before addition of AlphaLISA Nickel Acceptor beads. After 5 min, IN was added to the reaction mixture and incubated for 20 min before adding the AlphaScreen GSH Donor beads. This interaction assay was performed in conditions similar to the in vitro phosphorylation assay, already described, using 25 nM GCN2 and 700 nM (except indicated otherwise) in a reaction buffer containing 50 mM Tris-HCl pH 7.5, 40 mM NaCl, 1 mM dithiothreitol (DTT), 0.05% Tween 20, 0.1% bovine serum albumin (BSA), 10 µg/mL of each donor and acceptor beads. Alpha signal was measured using an EnSight plate reader (Perkin Elmer) 120 min after the addition of the latest component of the reaction (unless indicated otherwise).

GCN2 = biological target: T2, GCN2 (Homo sapiens, UniProt Q9P2K8); experiment: In vitro phosphorylation assay: GCN2 activation (auto-phosphorylation); assay type: biochemical; conditions: with IN
T2 construct: expressed as a truncated version (192-1024) in fusion after a glutathione S-transferase tag; purchased SignalChem E12-11G
T2 sequence (Q9P2K8 192-1024): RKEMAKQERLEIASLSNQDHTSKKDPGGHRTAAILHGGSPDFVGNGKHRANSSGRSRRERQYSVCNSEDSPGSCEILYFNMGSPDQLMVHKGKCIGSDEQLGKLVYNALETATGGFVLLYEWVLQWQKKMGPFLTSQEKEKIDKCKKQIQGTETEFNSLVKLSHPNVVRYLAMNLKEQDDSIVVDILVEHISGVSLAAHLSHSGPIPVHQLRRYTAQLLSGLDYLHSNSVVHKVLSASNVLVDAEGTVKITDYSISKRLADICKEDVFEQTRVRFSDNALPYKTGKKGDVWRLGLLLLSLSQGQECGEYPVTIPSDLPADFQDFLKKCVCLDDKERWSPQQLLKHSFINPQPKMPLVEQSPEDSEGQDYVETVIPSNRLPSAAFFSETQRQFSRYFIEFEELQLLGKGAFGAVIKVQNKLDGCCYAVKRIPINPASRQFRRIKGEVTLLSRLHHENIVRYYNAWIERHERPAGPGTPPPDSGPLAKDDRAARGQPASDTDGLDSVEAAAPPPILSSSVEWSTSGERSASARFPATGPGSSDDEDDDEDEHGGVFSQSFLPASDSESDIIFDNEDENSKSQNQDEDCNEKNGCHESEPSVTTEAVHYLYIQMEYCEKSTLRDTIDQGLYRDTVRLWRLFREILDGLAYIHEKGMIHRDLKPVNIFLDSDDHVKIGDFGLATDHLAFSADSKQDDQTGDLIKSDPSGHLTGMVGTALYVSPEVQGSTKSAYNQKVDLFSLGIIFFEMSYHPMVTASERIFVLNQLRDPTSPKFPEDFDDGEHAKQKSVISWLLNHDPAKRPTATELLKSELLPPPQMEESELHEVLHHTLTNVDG
Source text: Enzymes. GCN2 was purchased from SignalChem (EIF2AK4, cat. #E12-11G). This human recombinant protein was expressed as a truncated version (192-1024) in fusion after a glutathione S-transferase tag (approximate molecular weight of 132 kDa). Recombinant full-length IN was expressed in E. coli BL21 pLys (IPTG induction) and purified on a nickel chelating column, as described. Integrity and purity were checked by direct Coomassie coloration of elution fractions on SDS-PAGE before dialysis to remove imidazole. Protein concentration was determined using a NanoDrop 2000 with the following parameters: molecular weight: 34 kDa, extinction coefficient ϵ = 50,460 mol^−1cm^−1L.
In vitro phosphorylation assay. Phosphorylation of IN (700 nM) was carried out using 25 nM of GCN2 in a reaction buffer containing 10 mM Tris-HCl pH 7.5, 50 mM NaCl, 15 mM MgCl2, 7.5 mM MnCl2, 10 mM DTT, 0.005% Nonidet P-40, 100 µM ATP, 50 µCi/µL of [γ-^32P]-ATP (3000 Ci/mmole, Perkin Elmer). Reactions (20 µL) were stopped after a 60 min incubation at 30 °C by adding 10 µL of loading buffer [80 mM Tris-HCl pH 6.8, 100 mM DTT, 10% glycerol, 1% sodium dodecyl sulfate (SDS) and 0.05% bromophenol blue]. Samples were then loaded onto a 10% denaturating SDS-PAGE. After protein separation (120 V for 120 min) the gel was stained using Coomassie Brilliant Blue R-250. Autoradiography was performed using an imaging plate (Fujifilm, Tokyo, Japan) and images were obtained with a FLA-5000 Imaging System (Fujifilm).

With `O=C1c2c(O)ccc(O)c2C(=O)c2c(NCCNCCO)ccc(NCCNCCO)c21` [NSC279836, Mitoxantrone] the inhibition at 100 µM (IN–GCN2 interaction) was 99.4%, the remaining activity at 100 µM (GCN2; 100 µM, read-out: GCN2 auto-phosphorylation signal, % of the DMSO control) was 171% and the “effect on GCN2 auto-phosphorylation in dose-response” value (GCN2; serial dilutions from 300 µM to 137 nM) was “reproducible increase”.

Reference: PMC8434491, “Targeting the Integrated Stress Response Kinase GCN2 to Modulate Retroviral Integration” (Molecules, 2021)
